Source: US20250018019A1, “TREATMENT OF INTERFERON DRIVEN INFLAMMATION” (The Provost, Fellows, Foundation Scholars and the other …, priority 2023, published 2025)
Counter-ions that a name gives are not always drawn.

Experiments:
BMDMs [1] = assay: Flow cytometry, CellROX and TMRM staining; assay type: cell-based, mouse; details: LPS 4 h; for mitochondrial membrane potential (MMP), TMRM staining: BMDMs pre-treated, oligomycin 10 μM, CCCP 50 μM, valinomycin 10 nM, MMF 50 or 100 μM
Procedure: (§1) All compounds used DMSO as a vehicle except for 4-hydroxy tamoxifen (EtOH), NAC (PBS), and AOAA for tracing experiments (Media). LPS was used at a concentration of 100 ng/ml for indicated timepoints (2, 3, 4, 6, 8, 24, 48 h). FHIN1 (10 or 20 μM), MMF (50 or 100 μM), DMF (25 μM), AOAA (5 mM), oligomycin (10 μM), CCCP (50 μM) NAC (1 mM), and IMT1 (10 μM) pre-treatments were performed for 3 h prior the addition of LPS. Cells were treated with valinomycin (10 nM) 15 mins before LPS stimulation. Anti-CD210 or IgG control (10 μg/ml) antibodies were added to cells 1 h prior to LPS stimulation. Recombinant mouse IL-10 protein (100 ng/ml) was added to cells at the same time as LPS. Cells were treated with IFN-B1 (220 ng/ml) for 3 h. Cells were treated with C-178 (1 μM) 1 h prior to LPS stimulation or transfection with 2′3′-cGAMP (1.5 μg/ml) for 4 hrs to achieve cGAS-STING activation. Cells were treated with ODN 2088 (1 μM) for 1 hr prior to LPS stimulation or transfection with CPG ODN 1826 (1.5 μg/ml) to achieve TLR9 activation. 3 different timepoints of 4-hydroxy tamoxifen (TAM) (600 nM or 2 μM) or EtOH treatment were performed-these are specified in the individual figure legends. For ‘48 h’ treatments EtOH/TAM was added on day 5 of 6 during the BMDM differentiation protocol. On day 6 they were plated with EtOH/TAM (left overnight) and treated the following day. For ‘72 h’ treatments EtOH/TAM was added on day […] of 6 during the BMDM differentiation protocol. On day 6 they were plated with EtOH/TAM (left overnight) and treated the following day. For ‘96 h’ treatments EtOH/TAM was added on day […] of 6 during the BMDM differentiation protocol. On day 6 they were plated with EtOH/TAM and treated 2 days later.
Cells were plated in 12-well plates and treated as desired. CellROX Green (5 μM, Thermo Fisher) or TMRM (20 nM, Thermo Fisher) was added to cells 30 mins prior to end of cell treatments. Cells were washed once in PBS and scraped into 200 μl FACS buffer (2 mM EDTA, 0.5% FCS in PBS). Acquisition of samples was performed on a BD Accuri C6 flow cytometer. The gating strategy used for all flow cytometry experiments consisted of debris exclusion by FSC-A vs SSC-A analysis and subsequent doublet exclusion by FSC-A vs FSC-H analysis. A sample gating strategy is provided in Supplementary FIG. 2. 10,000 cells was acquired per condition. Mean fluorescence intensity (MFI) was calculated for all cells in each condition using FlowJo v10.

BMDMs [2] = assay: RT-qPCR gene expression in BMDMs; assay type: cell-based, mouse; details: for IL-1β expression / Il10 expression / Tnfa expression: BMDMs pre-treated 3 h; for Ifnb1 expression following Nrf2 silencing: Nrf2 siRNA
Procedure: as §1
RNA extraction from cells was carried out using a Purelink™ RNA kit (Invitrogen) according to the manufacturer's instructions. BMDMs were treated as required, and following treatment were instantly lysed in 350 μl RNA lysis buffer. Isolated RNA was quantified using a NanoDrop 2000 spectrophotometer, and RNA concentration was normalised to the lowest concentration across all samples with RNAse-free water. If necessary, samples were DNAse-treated after quantification using DNAse I (Thermo Fisher) according to the manufacturer's instructions. Isolated RNA samples were normalised and converted into cDNA using the High-Capacity cDNA Reverse Transcription Kit (Thermo Fisher) according to manufacturer's instructions. 10 μl of RNA (at a maximum concentration of 100 ng/μl) was added to 10 μl of reverse transcription master mix to complete the reaction mixture. Real-time quantitative PCR was performed on the cDNA generated in the previous step, using primers designed in-house and ordered from Eurofins Genomics, as detailed in Table S2. The reaction was performed in a 96-well qPCR plate by a 7500 Fast Real-Time PCR machine (Thermo Fisher). Relative expression (2^−ΔΔCT) was calculated from the CT values for each sample and gene of interest.
Pre-designed silencer select siRNAs for Cgas (s103166), Tmem173 (s91058), Tlr3 (s100579), Tlr9 (s96268), As/(s99640), Tlr7 (s100720), Ddx58 (s106376), Ifih1 (s89787), Nrf2 (s70522), Atf4 (s62689) and negative control (4390843) were ordered from Thermo Fisher. siRNA sequences are given in Table S2. Cells were transfected with 50 nM siRNA using 5 μl lipofectamine RNAiMAX according to manufacturer's instructions (Thermo Fisher). Cells were transfected in medium without serum and antibiotics which was replaced with complete medium 8 hours later. Cells were subsequently left for at least a further 12 hours prior to treatment.

Structure (SMILES)	mitochondrial membrane potential (MMP), TMRM staining (BMDMs [1])	IL-1β expression (BMDMs [2]; LPS 4 h)	Il10 expression (BMDMs [2]; LPS 4 h)	Tnfa expression (BMDMs [2]; LPS 4 h)	Tmem173 expression (BMDMs [2]; BMDMs pre-treated, LPS 4 h)	Ifnb1 expression following Nrf2 silencing (BMDMs [2]; BMDMs, LPS 4 h)	reactive oxygen species (ROS) production (CellROX MFI) (BMDMs [1]; BMDMs pre-treated 3 h)	Ddx58 expression (BMDMs [2]; BMDMs pre-treated, LPS 4 h)	dependence of the FHIN1 IFN-β increase on NAC-sensitive redox stress (Ifnb1 expression) (BMDMs [2]; BMDMs, in the presence of NAC, LPS 4 h)	dependence of FHIN1-driven GDF15 on NRF2 and ATF4 (BMDMs [2]; BMDMs, silencing of Nrf2 or Atf4, LPS 4 h)	induction of IFN-β (Ifnb1) in MAVS knockout BMDMs (BMDMs [2]; WT and Mavs−/− BMDMs, LPS 4 h)
COC(=O)/C=C/C(=O)OC [DMF, dimethyl fumarate]	no effect	reduced	decreased	increased	Suppression	increased	–	–	–	–	–
CCOC(=O)[C@@]12CCCC=C1N(Cc1ccc(-c3ccccc3)cc1)C(=O)[C@H]2CC(=O)NC [FHIN1, Fumarate hydratase-IN-1]	significantly increased staining	reduced	decreased	increased	Suppression	increased	increased	reduced	independent of NAC-sensitive redox stress	partly NRF2-but not ATF4-dependent	did not impair
